Columns and labels:
[1] = Hemolytic activity in rabbit RBC assessed as induction of hemolysis; type: cell-based, Oryctolagus cuniculus, Erythrocyte; settings: red blood cells, read-out: HD50 (the source's name)
[2] = Cytotoxicity against human Bel7402 cells assessed as inhibition of cell growth after 24 hrs by MTT assay; type: functional, cell-based; settings: Bel-7402, 24 h
[3] = system: SMMC-7721; assay: Cytotoxicity against human SMMC7721 cells assessed as inhibition of cell growth after 24 hrs by MTT assay; type: functional, cell-based; settings: SMMC-7721, 24 h
[4] = Cytotoxicity against human HL7702 cells assessed as inhibition of cell growth after 24 hrs by MTT assay; type: cell-based; settings: L02, 24 h
[5] = system: A549; assay: Cytotoxicity against human A549 cells assessed as inhibition of cell growth after 24 hrs by MTT assay; type: functional, cell-based; settings: A549, 24 h
[6] = Ratio of hemolytic HD50 for PSA to hemolytic HD50 for compound in rabbit RBC; type: ADME, cell-based, Oryctolagus cuniculus; settings: erythrocyte
[7] = Ratio of hemolytic HD50 for PSD to hemolytic HD50 for compound in rabbit RBC; type: ADME, cell-based, Oryctolagus cuniculus; settings: erythrocyte
[8] = system: Mus musculus; assay: Toxicity in mouse assessed as induction of induction of death at 0.1 mL/10 g, iv; type: organism-based; settings: in vivo
[9] = system: Mus musculus; assay: Toxicity in mouse assessed as death time at 0.1 mL/10 g, iv; type: organism-based; settings: in vivo
[10] = system: Mus musculus; assay: Toxicity in mouse assessed as induction of hematuria at 0.1 mL/10 g, iv; type: organism-based; settings: in vivo
[11] = Toxicity in iv dosed mouse assessed as tolerance dose; type: organism-based; settings: in vivo

## C[C@@H]1O[C@@H](O[C@H]2[C@H](O[C@H]3CC[C@@]4(C)[C@@H](CC[C@]5(C)[C@@H]4CC=C4[C@@H]6CC(C)(C)CC[C@]6(C(N)=O)CC[C@]45C)[C@]3(C)CO)OC[C@H](O)[C@@H]2O)[C@H](O)[C@H](O)[C@H]1O
[1]
  HC50: 30.2 µM
[2]
  IC50: > 100 µM
[3]
  IC50: > 100 µM
[4]
  IC50: > 100 µM
[5]
  IC50: > 100 µM

## C[C@@H]1O[C@@H](O[C@H]2[C@H](O[C@H]3CC[C@@]4(C)[C@@H](CC[C@]5(C)[C@@H]4CC=C4[C@@H]6CC(C)(C)CC[C@]6(C(=O)NC6CC6)CC[C@]45C)[C@]3(C)CO)OC[C@H](O)[C@@H]2O)[C@H](O)[C@H](O)[C@H]1O
[1]
  HC50: 127 µM
[2]
  IC50: 69.2 µM
[3]
  IC50: 32.6 µM
[4]
  IC50: 36.2 µM
[5]
  IC50: 38.3 µM

## C[C@@H]1O[C@@H](O[C@H]2[C@H](O[C@H]3CC[C@@]4(C)[C@@H](CC[C@]5(C)[C@@H]4CC=C4[C@@H]6CC(C)(C)CC[C@]6(C(=O)N6CCOCC6)CC[C@]45C)[C@]3(C)CO)OC[C@H](O)[C@@H]2O)[C@H](O)[C@H](O)[C@H]1O
[1]
  HC50: 230 µM
[2]
  IC50: 37.9 µM
[3]
  IC50: 17.2 µM
[6]
  Ratio: 20
[4]
  IC50: 22 µM
[5]
  IC50: 34.7 µM

## CCN(CC)CCNC(=O)[C@]12CCC(C)(C)C[C@H]1C1=CC[C@@H]3[C@@]4(C)CC[C@H](O[C@@H]5OC[C@H](O)[C@H](O)[C@H]5O[C@@H]5O[C@@H](C)[C@H](O)[C@@H](O)[C@H]5O)[C@@](C)(CO)[C@@H]4CC[C@@]3(C)[C@]1(C)CC2
[1]
  HC50: 75.3 µM
[2]
  IC50: > 100 µM
[3]
  IC50: 48 µM
[4]
  IC50: 40.6 µM
[5]
  IC50: 65.3 µM

## C[C@@H]1O[C@@H](O[C@H]2[C@H](O[C@H]3CC[C@@]4(C)[C@@H](CC[C@]5(C)[C@@H]4CC=C4[C@@H]6CC(C)(C)CC[C@]6(C(=O)NCCN6CCCC6)CC[C@]45C)[C@]3(C)CO)OC[C@H](O)[C@@H]2O)[C@H](O)[C@H](O)[C@H]1O
[1]
  HC50: 104 µM
[2]
  IC50: > 100 µM
[3]
  IC50: 46.8 µM
[4]
  IC50: 44.4 µM
[5]
  IC50: > 100 µM

## C[C@@H]1O[C@@H](O[C@H]2[C@H](O[C@H]3CC[C@@]4(C)[C@@H](CC[C@]5(C)[C@@H]4CC=C4[C@@H]6CC(C)(C)CC[C@]6(C(=O)Nc6ccccc6O)CC[C@]45C)[C@]3(C)CO)OC[C@H](O)[C@@H]2O)[C@H](O)[C@H](O)[C@H]1O
[1]
  HC50: 58.2 µM
[2]
  IC50: > 100 µM
[3]
  IC50: 1.3 µM
[4]
  IC50: 85.5 µM
[5]
  IC50: > 100 µM

## C[C@@H]1O[C@@H](O[C@H]2[C@H](O[C@H]3CC[C@@]4(C)[C@@H](CC[C@]5(C)[C@@H]4CC=C4[C@@H]6CC(C)(C)CC[C@]6(C(=O)NCC(=O)O)CC[C@]45C)[C@]3(C)CO)OC[C@H](O)[C@@H]2O)[C@H](O)[C@H](O)[C@H]1O
[1]
  HC50: > 500 µM
[2]
  IC50: 0.9 µM
[3]
  IC50: 3.2 µM
[6]
  Ratio: 20
[4]
  IC50: > 100 µM
[5]
  IC50: 1 µM

## C[C@@H]1O[C@@H](O[C@H]2[C@H](O[C@H]3CC[C@@]4(C)[C@@H](CC[C@]5(C)[C@@H]4CC=C4[C@@H]6CC(C)(C)CC[C@]6(C(=O)Nc6ccc(C(=O)O)cc6)CC[C@]45C)[C@]3(C)CO)OC[C@H](O)[C@@H]2O)[C@H](O)[C@H](O)[C@H]1O
[1]
  HC50: 356 µM
[2]
  IC50: 4.2 µM
[3]
  IC50: > 100 µM
[6]
  Ratio: 20
[4]
  IC50: 0.7 µM
[5]
  IC50: 1.1 µM

## C[C@@H]1O[C@@H](O[C@H]2[C@H](O[C@H]3CC[C@@]4(C)[C@@H](CC[C@]5(C)[C@@H]4CC=C4[C@@H]6CC(C)(C)CC[C@]6(C(=O)N6CCC[C@@H]6C(=O)O)CC[C@]45C)[C@]3(C)CO)OC[C@H](O)[C@@H]2O)[C@H](O)[C@H](O)[C@H]1O
[1]
  HC50: 22.9 µM
[2]
  IC50: 64 µM
[3]
  IC50: 41.4 µM
[4]
  IC50: 53.7 µM
[5]
  IC50: 61.6 µM

## C[C@@H]1O[C@@H](O[C@H]2[C@H](O[C@H]3CC[C@@]4(C)[C@@H](CC[C@]5(C)[C@@H]4CC=C4[C@@H]6CC(C)(C)CC[C@]6(C(=O)N6CCN(CCC(=O)O)CC6)CC[C@]45C)[C@]3(C)CO)OC[C@H](O)[C@@H]2O)[C@H](O)[C@H](O)[C@H]1O
[1]
  HC50: 195 µM
[2]
  IC50: > 100 µM
[3]
  IC50: > 100 µM
[6]
  Ratio: 20
[4]
  IC50: 46.6 µM
[5]
  IC50: 23.4 µM

## C[C@@H]1O[C@@H](O[C@H]2[C@H](O[C@H]3CC[C@@]4(C)[C@@H](CC[C@]5(C)[C@@H]4CC=C4[C@@H]6CC(C)(C)CC[C@]6(C(=O)N[C@H](CO)C(=O)O)CC[C@]45C)[C@]3(C)CO)OC[C@H](O)[C@@H]2O)[C@H](O)[C@H](O)[C@H]1O
[1]
  HC50: 8.3 µM
[2]
  IC50: 22.3 µM
[3]
  IC50: 26.6 µM
[4]
  IC50: 25.6 µM
[5]
  IC50: 32.5 µM

## COC(=O)[C@H]1CCCN1C(=O)[C@]12CCC(C)(C)C[C@H]1C1=CC[C@@H]3[C@@]4(C)CC[C@H](O[C@@H]5OC[C@H](O)[C@H](O)[C@H]5O[C@@H]5O[C@@H](C)[C@H](O)[C@@H](O)[C@H]5O)[C@@](C)(CO)[C@@H]4CC[C@@]3(C)[C@]1(C)CC2
[1]
  HC50: 494 µM
[2]
  IC50: 59.6 µM
[3]
  IC50: 36 µM
[6]
  Ratio: 20
[4]
  IC50: 36.6 µM
[5]
  IC50: 43.2 µM

## COC(=O)CCN1CCN(C(=O)[C@]23CCC(C)(C)C[C@H]2C2=CC[C@@H]4[C@@]5(C)CC[C@H](O[C@@H]6OC[C@H](O)[C@H](O)[C@H]6O[C@@H]6O[C@@H](C)[C@H](O)[C@@H](O)[C@H]6O)[C@@](C)(CO)[C@@H]5CC[C@@]4(C)[C@]2(C)CC3)CC1
[1]
  HC50: 57.7 µM
[2]
  IC50: 53.2 µM
[3]
  IC50: 38.3 µM
[4]
  IC50: 61.7 µM
[5]
  IC50: 14 µM

## COC(=O)[C@@H](CO)NC(=O)[C@]12CCC(C)(C)C[C@H]1C1=CC[C@@H]3[C@@]4(C)CC[C@H](O[C@@H]5OC[C@H](O)[C@H](O)[C@H]5O[C@@H]5O[C@@H](C)[C@H](O)[C@@H](O)[C@H]5O)[C@@](C)(CO)[C@@H]4CC[C@@]3(C)[C@]1(C)CC2
[1]
  HC50: 144 µM
[2]
  IC50: > 100 µM
[3]
  IC50: 88.3 µM
[6]
  Ratio: 20
[4]
  IC50: > 100 µM
[5]
  IC50: > 100 µM

## COC(=O)[C@]12CCC(C)(C)C[C@H]1C1=CC[C@@H]3[C@@]4(C)CC[C@H](O[C@@H]5OC[C@H](O)[C@H](O)[C@H]5O[C@@H]5O[C@@H](C)[C@H](O)[C@@H](O)[C@H]5O)[C@@](C)(CO)[C@@H]4CC[C@@]3(C)[C@]1(C)CC2
[1]
  HC50: 8.5 µM
[2]
  IC50: 72.1 µM
[3]
  IC50: 40.8 µM
[4]
  IC50: 36.3 µM
[5]
  IC50: 27 µM

## CC(=O)OCOC(=O)[C@]12CCC(C)(C)C[C@H]1C1=CC[C@@H]3[C@@]4(C)CC[C@H](O[C@@H]5OC[C@H](O)[C@H](O)[C@H]5O[C@@H]5O[C@@H](C)[C@H](O)[C@@H](O)[C@H]5O)[C@@](C)(CO)[C@@H]4CC[C@@]3(C)[C@]1(C)CC2
[1]
  HC50: 3.6 µM
[2]
  IC50: 33.8 µM
[3]
  IC50: 13.2 µM
[4]
  IC50: 20.5 µM
[5]
  IC50: 21.3 µM

## C[C@@H]1O[C@@H](O[C@H]2[C@H](O[C@H]3CC[C@@]4(C)[C@@H](CC[C@]5(C)[C@@H]4CC=C4[C@@H]6CC(C)(C)CC[C@]6(C(=O)N6CCC[C@H]6C(=O)O)CC[C@]45C)[C@]3(C)CO)OC[C@H](O[C@@H]3O[C@H](CO)[C@@H](O)[C@H](O)[C@H]3O)[C@@H]2O)[C@H](O)[C@H](O)[C@H]1O
[1]
  HC50: 326 µM
[2]
  IC50: 97.8 µM
[3]
  IC50: 46.8 µM
[7]
  Ratio: 20
[4]
  IC50: > 100 µM
[5]
  IC50: 71.1 µM

## C[C@@H]1O[C@@H](O[C@H]2[C@H](O[C@H]3CC[C@@]4(C)[C@@H](CC[C@]5(C)[C@@H]4CC=C4[C@@H]6CC(C)(C)CC[C@]6(C(=O)NCC(=O)[O-])CC[C@]45C)[C@]3(C)CO)OC[C@H](O)[C@@H]2O)[C@H](O)[C@H](O)[C@H]1O.[Na+]
[8]
  Activity: Non-toxic
[9]
  Time: > 14 days
[10]
  Activity: Non-toxic
[11]
  MTD: > 160 mg/kg

## C[C@@H]1O[C@@H](O[C@H]2[C@H](O[C@H]3CC[C@@]4(C)[C@@H](CC[C@]5(C)[C@@H]4CC=C4[C@@H]6CC(C)(C)CC[C@]6(C(=O)NCC(=O)[O-])CC[C@]45C)[C@]3(C)CO)OC[C@H](O[C@@H]3O[C@H](CO)[C@@H](O)[C@H](O)[C@H]3O)[C@@H]2O)[C@H](O)[C@H](O)[C@H]1O.[Na+]
[8]
  Activity: Non-toxic
[9]
  Time: > 14 days
[10]
  Activity: Non-toxic
[11]
  MTD: > 160 mg/kg

## C[C@@H]1O[C@@H](O[C@H]2[C@H](O[C@H]3CC[C@@]4(C)[C@@H](CC[C@]5(C)[C@@H]4CC=C4[C@@H]6CC(C)(C)CC[C@]6(C(=O)[O-])CC[C@]45C)[C@]3(C)CO)OC[C@H](O)[C@@H]2O)[C@H](O)[C@H](O)[C@H]1O.[Na+]
[8]
  Activity: Toxic
[9]
  Time: < 0.0417 days
[10]
  Activity: Toxic
[11]
  MTD: 10 mg/kg

## C[C@@H]1O[C@@H](O[C@H]2[C@H](O[C@H]3CC[C@@]4(C)[C@@H](CC[C@]5(C)[C@@H]4CC=C4[C@@H]6CC(C)(C)CC[C@]6(C(=O)[O-])CC[C@]45C)[C@]3(C)CO)OC[C@H](O[C@@H]3O[C@H](CO)[C@@H](O)[C@H](O)[C@H]3O)[C@@H]2O)[C@H](O)[C@H](O)[C@H]1O.[Na+]
[8]
  Activity: Toxic
[9]
  Time: < 0.0417 days
[10]
  Activity: Toxic
[11]
  MTD: 10 mg/kg

From ChEMBL document CHEMBL3425467, “Synthesis, cytotoxicity and haemolytic activity of Pulsatilla saponin A, D derivatives” (Bioorg Med Chem Lett, 2015)
